Source: PMC7187627 (Antimicrobial Agents and Chemotherapy, 2019)

Assay: Safety and tolerability (adverse events, laboratory tests, ECG), multiple-ascending-dose phase 1 study
Format: in vivo
Excerpt: Subjects were monitored closely with serial physical examinations, blood evaluations, and 12-lead ECGs. Subjects underwent safety laboratory testing, including measurement of blood cell counts (white blood cell [WBC] with differential, hemoglobin, and platelets), serum chemistry (sodium, potassium, chloride, calcium, bicarbonate, glucose, creatinine, blood urea nitrogen [BUN], creatine kinase [CK], aspartate aminotransferase [AST], alanine aminotransferase [ALT], alkaline phosphatase [ALP], total bilirubin, protein, albumin, amylase, and lipase) and urinalysis (protein, blood, and glucose). Study halting criteria had been established and were reviewed by an independent safety monitor (ISM) and the Safety Monitoring Committee (SMC) prior to proceeding with dosing within a cohort or to the next cohort.
The safety population included all subjects who received at least one dose of the study drug. The safety and tolerability of CRS3123 were evaluated by the sequential review of reported adverse events (AEs), changes from baseline in physical examination findings, vital sign measurements, safety laboratory tests (hematology, clinical chemistry, and urinalysis), and key 12-lead ECG findings. All safety assessments were summarized with descriptive statistics or frequency counts.
The period of observation for AE reporting began on day 1 at the time of study drug administration and continued through the final visit.
All AEs were coded to system organ class (SOC) and preferred term (PT) using the Medical Dictionary for Regulatory Activities (MedDRA), version 17.0 (https://www.meddra.org/). A treatment-emergent AE (TEAE) was defined as any AE that occurred during the study observation period (i.e., from day 1 at the time of study drug administration through the final visit). An AE with a partial onset date was classified as a TEAE if the reported partial onset date could not definitely be identified as before the date of study drug administration. Any AE with a missing onset date or missing time on day of study drug administration was classified as a TEAE.
To count the overall number of subjects who experienced each TEAE and calculation of an occurrence rate, a subject experiencing multiple occurrences of an AE was counted only once for that PT. Similarly, if a subject experienced multiple TEAEs within the same SOC, that subject was counted once to calculate an occurrence rate for the SOC. To count the number of subjects who experienced each TEAE by severity classification (mild, moderate, severe, and life-threatening) and calculate an occurrence rate, a subject experiencing multiple occurrences of an AE of the same severity was counted once in that particular severity classification for that PT. If a subject experienced multiple occurrences of an AE of differing severities, only the most severe occurrence within each PT was counted.

[1] = all TEAEs, Cohort B, 400 mg Q12h (n = 8)
[2] = all TEAEs, Cohort C, 600 mg Q12h (n = 8)
[3] = treatment-related AEs, All active (n = 24)
[4] = treatment-related AEs, Cohort A, 200 mg Q12h (n = 8)
[5] = treatment-related AEs, Cohort B, 400 mg Q12h (n = 8)
[6] = treatment-related AEs, Cohort C, 600 mg Q12h (n = 8)

SMILES: O=c1cc(NCCCN[C@@H]2CCOc3c(Br)cc(Br)cc32)[nH]c2ccsc12 [CRS3123]
- No. (%) of subjects: Dry skin [1]: 1 (12.5)
- No. (%) of subjects: Dysgeusia [1]: 1 (12.5)
- No. (%) of subjects: Ear and labyrinth disorders (system organ class) [1]: 0 (0.0)
- No. (%) of subjects: Ear discomfort [1]: 0 (0.0)
- No. (%) of subjects: Erythema [1]: 1 (12.5)
- No. (%) of subjects: Gastrointestinal disorders (system organ class) [1]: 2 (25.0)
- No. (%) of subjects: General disorders and administration site conditions (system organ class) [1]: 0 (0.0)
- No. (%) of subjects: Headache [1]: 1 (12.5)
- No. (%) of subjects: Hemoglobin decreased [1]: 1 (12.5)
- No. (%) of subjects: Infections and infestations (system organ class) [1]: 0 (0.0)
- No. (%) of subjects: Infusion site thrombosis [1]: 0 (0.0)
- No. (%) of subjects: Injury, poisoning, and procedural complications (system organ class) [1]: 0 (0.0)
- No. (%) of subjects: Investigations (system organ class) [1]: 4 (50.0)
- No. (%) of subjects: Lipase increased [1]: 2 (25.0)
- No. (%) of subjects: Myalgia [1]: 1 (12.5)
- No. (%) of subjects: Nervous system disorders (system organ class) [1]: 2 (25.0)
- No. (%) of subjects: Oropharyngeal pain [1]: 0 (0.0)
- No. (%) of subjects: Psychiatric disorders (system organ class) [1]: 0 (0.0)
- No. (%) of subjects: Respiratory, thoracic, and mediastinal disorders (system organ class) [1]: 1 (12.5)
- No. (%) of subjects: Skin and subcutaneous tissue disorders (system organ class) [1]: 2 (25.0)
- No. (%) of subjects: Subjects with TEAEs [1]: 6 (75.0)
- No. (%) of subjects: Throat irritation [1]: 1 (12.5)
- No. (%) of subjects: Upper respiratory tract infection [1]: 0 (0.0)
- No. (%) of subjects: White blood cell count increased [1]: 0 (0.0)
- No. (%) of subjects: Alanine aminotransferase increased [2]: 2 (25.0)
- No. (%) of subjects: Amylase increased [2]: 1 (12.5)
- No. (%) of subjects: Anxiety [2]: 0 (0.0)
- No. (%) of subjects: Arthropod bite [2]: 0 (0.0)
- No. (%) of subjects: Aspartate aminotransferase increased [2]: 2 (25.0)
- No. (%) of subjects: Blood bilirubin increased [2]: 1 (12.5)
- No. (%) of subjects: Blood calcium increased [2]: 0 (0.0)
- No. (%) of subjects: Blood potassium increased [2]: 0 (0.0)
- No. (%) of subjects: Blood pressure, diastolic, decreased [2]: 1 (12.5)
- No. (%) of subjects: Blood pressure, diastolic, increased [2]: 1 (12.5)
- No. (%) of subjects: Blood pressure, systolic, decreased [2]: 0 (0.0)
- No. (%) of subjects: Blood pressure, systolic, increased [2]: 1 (12.5)
- No. (%) of subjects: Diarrhea [2]: 0 (0.0)
- No. (%) of subjects: Dry skin [2]: 0 (0.0)
- No. (%) of subjects: Dysgeusia [2]: 0 (0.0)
- No. (%) of subjects: Ear and labyrinth disorders (system organ class) [2]: 0 (0.0)
- No. (%) of subjects: Ear discomfort [2]: 0 (0.0)
- No. (%) of subjects: Erythema [2]: 0 (0.0)
- No. (%) of subjects: Gastrointestinal disorders (system organ class) [2]: 0 (0.0)
- No. (%) of subjects: General disorders and administration site conditions (system organ class) [2]: 1 (12.5)
- No. (%) of subjects: Headache [2]: 0 (0.0)
- No. (%) of subjects: Hemoglobin decreased [2]: 1 (12.5)
- No. (%) of subjects: Infections and infestations (system organ class) [2]: 0 (0.0)
- No. (%) of subjects: Infusion site thrombosis [2]: 1 (12.5)
- No. (%) of subjects: Injury, poisoning, and procedural complications (system organ class) [2]: 0 (0.0)
- No. (%) of subjects: Investigations (system organ class) [2]: 6 (75.0)
- No. (%) of subjects: Lipase increased [2]: 2 (25.0)
- No. (%) of subjects: Musculoskeletal and connective tissue disorders (system organ class) [2]: 0 (0.0)
- No. (%) of subjects: Myalgia [2]: 0 (0.0)
- No. (%) of subjects: Nervous system disorders (system organ class) [2]: 0 (0.0)
- No. (%) of subjects: Oropharyngeal pain [2]: 1 (12.5)
- No. (%) of subjects: Psychiatric disorders (system organ class) [2]: 0 (0.0)
- No. (%) of subjects: Respiratory, thoracic, and mediastinal disorders (system organ class) [2]: 1 (12.5)
- No. (%) of subjects: Skin and subcutaneous tissue disorders (system organ class) [2]: 0 (0.0)
- No. (%) of subjects: Subjects with TEAEs [2]: 6 (75.0)
- No. (%) of subjects: Throat irritation [2]: 0 (0.0)
- No. (%) of subjects: Upper respiratory tract infection [2]: 0 (0.0)
- No. (%) of subjects: White blood cell count increased [2]: 0 (0.0)
- withdrawals due to TEAEs (all doses): No subjects were withdrawn
- No. (%) of subjects: Alanine aminotransferase increased [3]: 1 (4.2)
- No. (%) of subjects: Diarrhea [3]: 1 (4.2)
- No. (%) of subjects: Dysgeusia [3]: 1 (4.2)
- No. (%) of subjects: Gastrointestinal disorders (system organ class) [3]: 1 (4.2)
- No. (%) of subjects: Investigations (system organ class) [3]: 1 (4.2)
- No. (%) of subjects: Lipase increased [3]: 0 (0.0)
- No. (%) of subjects: Nervous system disorders (system organ class) [3]: 1 (4.2)
- No. (%) of subjects: Subjects with TEAEs [3]: 3 (12.5)
- No. (%) of subjects: Alanine aminotransferase increased [4]: 0 (0.0)
- No. (%) of subjects: Diarrhea [4]: 0 (0.0)
- No. (%) of subjects: Dysgeusia [4]: 0 (0.0)
- No. (%) of subjects: Gastrointestinal disorders (system organ class) [4]: 0 (0.0)
- No. (%) of subjects: Investigations (system organ class) [4]: 0 (0.0)
- No. (%) of subjects: Lipase increased [4]: 0 (0.0)
- No. (%) of subjects: Nervous system disorders (system organ class) [4]: 0 (0.0)
- No. (%) of subjects: Alanine aminotransferase increased [5]: 0 (0.0)
- No. (%) of subjects: Diarrhea [5]: 1 (12.5)
- No. (%) of subjects: Dysgeusia [5]: 1 (12.5)
- No. (%) of subjects: Gastrointestinal disorders (system organ class) [5]: 1 (12.5)
- No. (%) of subjects: Investigations (system organ class) [5]: 0 (0.0)
- No. (%) of subjects: Lipase increased [5]: 0 (0.0)
- No. (%) of subjects: Nervous system disorders (system organ class) [5]: 1 (12.5)
- No. (%) of subjects: Alanine aminotransferase increased [6]: 1 (12.5)
- No. (%) of subjects: Diarrhea [6]: 0 (0.0)
- No. (%) of subjects: Dysgeusia [6]: 0 (0.0)
- No. (%) of subjects: Gastrointestinal disorders (system organ class) [6]: 0 (0.0)
- No. (%) of subjects: Investigations (system organ class) [6]: 1 (12.5)
- No. (%) of subjects: Lipase increased [6]: 0 (0.0)
- No. (%) of subjects: Nervous system disorders (system organ class) [6]: 0 (0.0)
- severity of TEAEs (whole study): majority of TEAEs reported in the study were of mild severity
